Data set [1] is described as follows: Pharmacokinetics of different forms in beagle dogs. The data set is classed as in vivo. The following applies: capsule, 3 mg/kg. How it is done: Animal subject: beagle dogs, male, weighed 8˜14 kg, 3 dogs/crystal form. Beagle dogs were purchased from Beijing Marshall Biotechnology Co. Ltd.
Administration: three test samples were prepared into capsules, at an administration dose of 3 mg/kg according to body weight of dog.
About 37.3 mg of an amorphous compound was weighed, and packaged into hollow capsules (three capsules in total, one capsule per dog).
Blood was collected 10 min, 30 min, 1 h, 2 h, 4 h, 6 h, 8 h, and 24 h after administration. Before blood collection, the animals were fixed, and whole blood (about 400 μL) was collected from vein of forelimb at each time point, and added to K2EDTA-containing anticoagulation tubes. The whole blood sample was centrifuged for 6 min at 4° C., 8000 rpm in a high speed centrifuge, and plasma was separated. Plasma needed to be prepared within 30 min after blood collection, and plasma was stored at −80° C. in a refrigerator.
The plasma samples were analyzed by protein precipitation: to plasma (50 μL), an internal standard Afatinib dimaleate (200 μL, 50 ng/mL acetonitrile solution) was added; the resultant mixture was vortexed at 1500 rpm for 3 min, and centrifuged at 12000 rpm for 5 min; to the supernatant (100 μL), water (100 μL) was added; the resultant mixture was mixed homogeneously under vortexing and analyzed by LC-MS/MS for blood concentration.
PK parameters were calculated by using Pharsight Phoenix 6.2 software.

Data set [2] can be described thus: Stability of Crystal form II under influencing factor condition. It is filed as physicochemical. Here is the method:
Test samples in culture dishes were left uncovered. The test samples, which were kept under influencing factor conditions (a high temperature of 60° C., 25° C.-high moisture RH 75%, and 25° C.-high moisture RH 92.5%, under the condition of light) for 5 days and 10 days, were studied for stability; and the test samples which were kept at 40° C. for 5 days, 10 days and 30 days, and the test samples which were kept at 25° C. for 30 days and 90 days, were studied for stability. Samples were separately taken at specified time points, and the items (moisture content (Coulomb), relevant substances, XRPD) were studied. In accordance with High Performance Liquid Chromatography in Appendix V D in Pharmacopoeia of the People's Republic of China (2010), samples were determined by area normalization method. The moisture content was determined in accordance with First Method for Determining Moisture Content B (Coulometric Titration) in Appendix VIII M in Pharmacopoeia of the People's Republic of China (2010).

Data set [3] in a line: Soluble property test in water. It is filed as physicochemical. Here is the method: (1) Soluble property test: to a test sample, adding a corresponding solvent dropwise in a small amount for several times, shaking in a 25° C. thermostat water bath until the sample was completely dissolved, and calculating the dissolved concentration, i.e., soluble property.
Data set [4] is described as follows: Solubility test (saturated solubility) in water. The data set is classed as physicochemical. The source says: (2) Solubility test: to a suitable volume of water, adding a test sample until oversaturation occurred in the solution of the sample, vortexing, centrifuging, filtrating the supernatant and then diluting it to a suitable concentration, subjecting the sample to a liquid chromatographic instrument, and determining the saturated concentration of the sample (i.e., saturated solubility) by external standard method.

Data set [5] in a line: Stability of Crystal form I under influencing factor condition (high temperature of 60° C.). The data set is classed as physicochemical. How it is done: A test sample was kept under influencing factor condition (a high temperature of 60° C.) for 30 d. Samples were separately taken at specified time points, and compared with the sample at Day 0. XRPD, relevant substances, contents, character, acidity, moisture content, and the like were determined. During the study, samples were packaged with plastic bags and sealed with aluminum foil outside.
(§1) In accordance with High Performance Liquid Chromatography in Appendix V D in Pharmacopoeia of the People's Republic of China (2010), samples at Day 0 were used as control samples, and samples were determined by external standard method.
(§2) In accordance with High Performance Liquid Chromatography in Appendix V D in Pharmacopoeia of the People's Republic of China (2010), samples were determined by area normalization method.
(§3) The moisture content was determined in accordance with First Method for Determining Moisture Content B (Coulometric Titration) in Appendix VIII M in Pharmacopoeia of the People's Republic of China (2010).

Data set [6] can be described thus: Stability of Crystal form I under accelerated condition and long-term condition. It is filed as physicochemical. The following applies: 30° C. 1 month.
Assay in data set [7]: as above
It is filed as physicochemical. How it is done: Test samples were kept under accelerated condition (40° C.+RH 75%) for 6 months. Samples were separately taken at specified time points. XRPD, character, relevant substances, content, acidity, moisture content and the like were studied.
Test samples were kept under long-term condition (25° C.) for 6 months. Samples were separately taken at specified time points. Important items of stability (relevant substances) were studied.
At the last time point of the accelerated condition and long-term condition, XRPD, character, relevant substances, content, pH, moisture content and the like were studied.
as §1, §2, §3

A further data set concerns the target EGFR (Homo sapiens, UniProt P00533). The following applies: disclosed in WO2012027960A1; cited from earlier work.
In data set [8] the test system is erlotinib-resistant H1975 cell line. The following applies: cited from earlier work.
The next data set deals with HER2 (Homo sapiens, UniProt P04626). The following applies: disclosed in WO2012027960A1; cited from earlier work.
Sequence of HER2 (P04626 23-1255): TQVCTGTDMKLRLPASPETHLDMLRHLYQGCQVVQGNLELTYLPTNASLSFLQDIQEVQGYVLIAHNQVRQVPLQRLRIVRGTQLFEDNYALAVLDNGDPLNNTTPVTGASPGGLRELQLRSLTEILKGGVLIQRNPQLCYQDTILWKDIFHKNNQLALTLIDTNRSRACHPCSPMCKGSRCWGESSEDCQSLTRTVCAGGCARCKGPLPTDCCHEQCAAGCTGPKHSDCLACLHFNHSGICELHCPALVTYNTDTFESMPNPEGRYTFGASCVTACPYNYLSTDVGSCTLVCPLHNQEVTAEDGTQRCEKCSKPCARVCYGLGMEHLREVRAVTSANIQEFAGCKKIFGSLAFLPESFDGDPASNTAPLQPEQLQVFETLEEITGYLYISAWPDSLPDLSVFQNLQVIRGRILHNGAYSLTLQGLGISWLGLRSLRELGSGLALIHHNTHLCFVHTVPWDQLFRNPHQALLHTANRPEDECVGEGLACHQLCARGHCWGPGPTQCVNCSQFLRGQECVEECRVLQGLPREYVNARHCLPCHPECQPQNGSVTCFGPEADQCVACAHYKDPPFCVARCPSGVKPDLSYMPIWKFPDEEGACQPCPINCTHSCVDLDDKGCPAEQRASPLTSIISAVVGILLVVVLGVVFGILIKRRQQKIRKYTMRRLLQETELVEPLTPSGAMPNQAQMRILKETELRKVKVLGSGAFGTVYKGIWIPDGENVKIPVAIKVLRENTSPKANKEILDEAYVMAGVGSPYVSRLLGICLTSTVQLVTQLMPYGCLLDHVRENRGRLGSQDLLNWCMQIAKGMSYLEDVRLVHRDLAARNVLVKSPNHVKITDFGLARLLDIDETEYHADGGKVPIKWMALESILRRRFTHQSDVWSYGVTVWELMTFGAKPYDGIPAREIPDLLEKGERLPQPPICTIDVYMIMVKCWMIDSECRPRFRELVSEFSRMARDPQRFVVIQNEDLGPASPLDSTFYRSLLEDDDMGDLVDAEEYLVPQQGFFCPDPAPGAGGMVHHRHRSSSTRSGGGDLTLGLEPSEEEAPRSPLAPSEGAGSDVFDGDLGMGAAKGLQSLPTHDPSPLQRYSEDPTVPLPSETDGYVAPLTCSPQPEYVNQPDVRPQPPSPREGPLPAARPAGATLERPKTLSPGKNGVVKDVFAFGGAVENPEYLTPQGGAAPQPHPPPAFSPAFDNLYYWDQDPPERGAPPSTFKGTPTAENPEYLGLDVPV
A further data set concerns the target HER4 (Homo sapiens, UniProt Q15303). The following applies: disclosed in WO2012027960A1; cited from earlier work.
Setting [9] is: RH75% 5 days, 25° C., uncovered.
Where [10] appears, read: RH75% 10 days, 25° C., uncovered.
[11] abbreviates: RH92.5% 5 days, 25° C., uncovered.
The mark [12] stands for this setting: RH92.5% 10 days, 25° C., uncovered.

In brackets after ≈: the same amount, converted by molar mass. Like-named read-outs stand apart in the source and are kept apart here.

The Cmax is the maximum level reached in the sampled fluid or tissue. The Tmax is the time at which the peak concentration occurs. Broadly, the AUC(0-inf) is the area under the concentration-time curve extrapolated to infinity. Read a low AUC(0-inf) as low exposure. The solubility is how much of the substance goes into solution per volume. Higher therefore signals much dissolved substance.

Sequence of EGFR (P00533 25-1210): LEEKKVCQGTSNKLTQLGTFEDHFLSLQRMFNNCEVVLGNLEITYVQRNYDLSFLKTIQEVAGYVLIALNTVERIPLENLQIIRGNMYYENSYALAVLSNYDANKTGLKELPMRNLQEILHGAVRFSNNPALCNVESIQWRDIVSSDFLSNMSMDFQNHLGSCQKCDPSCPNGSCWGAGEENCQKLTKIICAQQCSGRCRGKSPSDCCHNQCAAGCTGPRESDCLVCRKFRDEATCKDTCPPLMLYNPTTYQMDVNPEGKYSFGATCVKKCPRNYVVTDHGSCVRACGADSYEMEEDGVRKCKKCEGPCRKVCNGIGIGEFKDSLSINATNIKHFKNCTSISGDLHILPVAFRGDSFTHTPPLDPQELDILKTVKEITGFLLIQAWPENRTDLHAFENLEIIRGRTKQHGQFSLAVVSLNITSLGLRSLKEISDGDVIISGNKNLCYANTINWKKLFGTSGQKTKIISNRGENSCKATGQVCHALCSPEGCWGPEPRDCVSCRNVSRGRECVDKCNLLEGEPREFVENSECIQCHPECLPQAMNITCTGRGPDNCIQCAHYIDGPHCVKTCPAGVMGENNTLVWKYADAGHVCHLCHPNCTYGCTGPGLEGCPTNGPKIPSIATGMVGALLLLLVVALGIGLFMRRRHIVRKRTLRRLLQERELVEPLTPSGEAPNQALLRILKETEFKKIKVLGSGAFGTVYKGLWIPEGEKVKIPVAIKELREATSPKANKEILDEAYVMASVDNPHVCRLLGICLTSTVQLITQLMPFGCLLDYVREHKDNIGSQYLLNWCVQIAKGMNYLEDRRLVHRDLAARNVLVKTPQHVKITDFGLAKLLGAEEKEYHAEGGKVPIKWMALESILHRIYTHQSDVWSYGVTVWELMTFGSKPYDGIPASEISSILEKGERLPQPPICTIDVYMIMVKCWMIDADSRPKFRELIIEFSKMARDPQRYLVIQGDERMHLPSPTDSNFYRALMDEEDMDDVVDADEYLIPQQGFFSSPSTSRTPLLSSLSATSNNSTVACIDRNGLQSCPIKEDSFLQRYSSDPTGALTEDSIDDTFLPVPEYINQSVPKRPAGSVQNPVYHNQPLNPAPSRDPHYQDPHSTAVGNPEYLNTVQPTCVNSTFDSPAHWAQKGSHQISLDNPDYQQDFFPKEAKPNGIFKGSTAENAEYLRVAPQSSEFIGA
Sequence of HER4 (Q15303 26-1308): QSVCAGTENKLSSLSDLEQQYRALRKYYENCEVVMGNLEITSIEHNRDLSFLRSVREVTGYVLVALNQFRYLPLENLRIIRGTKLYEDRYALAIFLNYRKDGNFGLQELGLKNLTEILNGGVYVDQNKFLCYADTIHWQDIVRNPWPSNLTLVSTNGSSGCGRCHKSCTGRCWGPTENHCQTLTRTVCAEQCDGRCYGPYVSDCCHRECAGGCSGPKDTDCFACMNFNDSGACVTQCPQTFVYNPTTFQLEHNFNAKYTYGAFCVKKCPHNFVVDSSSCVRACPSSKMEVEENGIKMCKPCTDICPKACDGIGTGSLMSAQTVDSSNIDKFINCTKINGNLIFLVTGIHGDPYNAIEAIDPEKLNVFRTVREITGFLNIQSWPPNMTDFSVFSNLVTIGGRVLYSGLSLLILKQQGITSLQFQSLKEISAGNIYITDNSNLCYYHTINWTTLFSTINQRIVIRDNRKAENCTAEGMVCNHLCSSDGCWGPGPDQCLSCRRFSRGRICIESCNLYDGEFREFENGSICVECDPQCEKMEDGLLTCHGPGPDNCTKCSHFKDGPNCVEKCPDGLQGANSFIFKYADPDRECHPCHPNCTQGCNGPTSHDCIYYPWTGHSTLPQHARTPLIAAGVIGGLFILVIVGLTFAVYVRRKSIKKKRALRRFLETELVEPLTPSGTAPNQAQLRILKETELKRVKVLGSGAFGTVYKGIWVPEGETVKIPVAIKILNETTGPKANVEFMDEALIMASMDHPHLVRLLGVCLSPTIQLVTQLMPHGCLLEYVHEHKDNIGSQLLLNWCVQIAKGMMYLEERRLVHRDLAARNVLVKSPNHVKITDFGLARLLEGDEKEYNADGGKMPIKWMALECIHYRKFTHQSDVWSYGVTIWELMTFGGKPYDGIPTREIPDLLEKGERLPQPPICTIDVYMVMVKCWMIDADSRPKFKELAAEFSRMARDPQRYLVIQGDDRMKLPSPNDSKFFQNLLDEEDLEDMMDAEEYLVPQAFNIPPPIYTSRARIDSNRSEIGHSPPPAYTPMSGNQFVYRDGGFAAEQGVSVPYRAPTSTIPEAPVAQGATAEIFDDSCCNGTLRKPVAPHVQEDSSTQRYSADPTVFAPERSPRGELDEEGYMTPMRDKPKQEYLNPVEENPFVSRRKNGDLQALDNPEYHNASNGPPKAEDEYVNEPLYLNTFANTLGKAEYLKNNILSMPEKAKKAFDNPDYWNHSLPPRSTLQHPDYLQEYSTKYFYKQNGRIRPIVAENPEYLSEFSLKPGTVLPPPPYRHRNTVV

In data set [1], `C=CC(=O)Nc1cc2c(Nc3ccc(F)c(Cl)c3)ncnc2cc1OCC1CC2(CCN(C)CC2)C1` [Amorphous form, N-(4-((3-chloro-4-fluorophenyl)amino)-7-((7-methyl-7-azaspiro[3.5]nonan-2-yl)methoxy)quinazolin-6-yl)acrylamide] had an AUC0-t of 68.6 ng·h/mL, an AUCinf of 79.9 ng·h/mL, a Cmax of 16.6 ng/mL and a T1/2 of 2.47 h. The Tmax in data set [1] is 2.00 h.

In turn, `C=CC(=O)Nc1cc2c(Nc3ccc(F)c(Cl)c3)ncnc2cc1OCC1CC2(CCN(C)CC2)C1` [Crystal form II, N-(4-((3-chloro-4-fluorophenyl)amino)-7-((7-methyl-7-azaspiro[3.5]nonan-2-yl)methoxy)quinazolin-6-yl)acrylamide] displayed an AUC0-t in [1] of 110 ng·h/mL. This compound also gave an AUCinf in data set [1] of 111 ng·h/mL. This compound came in with a Cmax in data set [1] of 14.6 ng/mL. Besides, in data set [1], the T1/2 amounted to 3.98 h. Also, the time to peak (Tmax) in data set [1] was found to be 2.00 h. The Moisture content in data set [2] (0 day) worked out at 13.1%; in data set [2] (25° C. 3 months, uncovered) it was 13.4%; in data set [2] (25° C. 30 days, uncovered) it was 13.1%; in data set [2] (40° C. 5 days, uncovered), 4.5%; in [2] (40° C. 10 days, uncovered), 5.6%; in data set [2] (40° C. 30 days, uncovered), 5.3%. For the same compound, the Moisture content in data set [2] (60° C. 5 days, uncovered) is 4.4%; in data set [2] (60° C. 10 days, uncovered), 5.3%; in data set [2] (Light 5 days, uncovered), 13.2%; in [2] (Light 10 days, uncovered), 13.3%; in data set [2] (setting [9]) it was 13.2%; in data set [2] (setting [10]), 13.3%. Also, the values for the Moisture content in [2] (setting [11]) and in data set [2] (setting [12]) were 13.4% and 13.5%, respectively. For the same compound, the Relevant substances in [2] (0 day) was found to be 1.2%; in [2] (25° C. 3 months, uncovered), 1.3%; in data set [2] (25° C. 30 days, uncovered), 1.3%; in data set [2] (40° C. 5 days, uncovered) it was 1.3%; in data set [2] (40° C. 10 days, uncovered), 1.6%; in [2] (40° C. 30 days, uncovered) it was 3.0%. Also, the Relevant substances in data set [2] (60° C. 5 days, uncovered) is reported as 1.8%; in data set [2] (60° C. 10 days, uncovered), 2.3%; in data set [2] (Light 5 days, uncovered), 1.5%; in data set [2] (Light 10 days, uncovered) it was 1.8%; in [2] (setting [9]), 1.3%; in [2] (setting [10]) it was 1.3%. The values for the Relevant substances in data set [2] (setting [11]) and in [2] (setting [12]) were 1.2% and 1.3%, respectively. Besides, the “Crystal form XRPD” value was “Crystal form I” in data set [2] (40° C. 5 days, uncovered); “Crystal form I” in data set [2] (40° C. 10 days, uncovered); “Crystal form I” in [2] (40° C. 30 days, uncovered); “Crystal form I” in data set [2] (60° C. 5 days, uncovered); “Crystal form I” in [2] (60° C. 10 days, uncovered). In [2] (Table 5 conditions), the Overall stability conclusion result is listed as “sensitive to high temperature conditions”. Further, the Soluble property entry in [3] (25° C.) is on record as “property: 23.23) mg/mL”. Also, in data set [3] (25° C.), the “Soluble property (descriptive term)” value is listed as “slightly soluble, (soluble”. The “Solubility (saturated solubility)” value in data set [4] was “solubility: 28.94 mg/mL”.

`C=CC(=O)Nc1cc2c(Nc3ccc(F)c(Cl)c3)ncnc2cc1OCC1CC2(CCN(C)CC2)C1` [Crystal form I, N-(4-((3-chloro-4-fluorophenyl)amino)-7-((7-methyl-7-azaspiro[3.5]nonan-2-yl)methoxy)quinazolin-6-yl)acrylamide]: the Content in [5] (0 day) is 100.8%; in [5] (60° C.-covered-1 month), 100.7%; in [5] (60° C.-covered-5 days), 100.9%; in data set [5] (60° C.-covered-10 days), 100.7%; in data set [6], 100.8%; in data set [7] (0 day) it was 100.8%. Besides, the Content in data set [7] (25° C. 1 month) was determined as 100.7%; in data set [7] (40° C. 1 month) it was 100.9%. In addition, the Moisture content in [5] (0 day) is 3.9%; in data set [5] (60° C.-covered-1 month), 4.4%; in data set [5] (60° C.-covered-5 days), 4.5%; in data set [5] (60° C.-covered-10 days), 4.5%; in [6] it was 4.3%; in data set [7] (0 day), 3.9%. In addition, the “Moisture content” value was determined as 4.2% in [7] (25° C. 1 month) and 4.6% in data set [7] (40° C. 1 month). Besides, the Relevant substances in [5] (0 day) worked out at 0.15%; in [5] (60° C.-covered-1 month) it was 0.20%; in data set [5] (60° C.-covered-5 days), 0.23%; in [5] (60° C.-covered-10 days) it was 0.24%; in [6], 0.18%; in data set [7] (0 day), 0.15%. Also, the results for the Relevant substances in data set [7] (25° C. 1 month) and in data set [7] (40° C. 1 month) were 0.18% and 0.19%, respectively. Also, the pH in data set [5] (0 day) is 2.8; in [5] (60° C.-covered-1 month) it was 2.8; in [5] (60° C.-covered-5 days), 2.8; in [5] (60° C.-covered-10 days) it was 2.7; in data set [6], 2.8; in [7] (0 day) it was 2.8. Besides, the pH in data set [7] (25° C. 1 month) and in data set [7] (40° C. 1 month) was 2.8 throughout. Moreover, the Overall stability conclusion entry in data set [5] (kept under various conditions for 1 month (Tables 3 and 4)) was “high stability”. In data set [1], this compound yielded a T1/2 of 4.95 h. The AUC(0-inf) in data set [1] (male, beagle, dog, plasma, po) was 115 ng·h/mL. Further, the AUC0-t in data set [1] (male, beagle, dog, plasma, po, read-out: AUC0-t) was determined as 112 ng·h/mL. Also, the highest concentration (Cmax) in data set [1] (male, beagle, dog, plasma, po, read-out: Cmax) was 15.3 ng/mL. Further, the Tmax in [1] (male, dog, plasma, po, read-out: Tmax) is 2 h. In addition, the “Soluble property (descriptive term)” value in data set [3] (25° C.) is listed as “slightly soluble, (soluble”. Moreover, the solubility worked out at 20 mg/mL (≈ 39.2 mM) in data set [3] (25 °C, thermodynamic from solid) and 39.1 mg/mL (≈ 76.7 mM) in [4] (thermodynamic from solid).

With `C=CC(=O)Nc1cc2c(Nc3ccc(F)c(Cl)c3)ncnc2cc1OCC1CC2(CCN(C)CC2)C1` [Formula (I), N-(4-((3-chloro-4-fluorophenyl)amino)-7-((7-methyl-7-azaspiro[3.5]nonan-2-yl)methoxy)quinazolin-6-yl)acrylamide], the “Inhibition of EGFR” value on EGFR is reported as “effectively inhibit EGFR”. In data set [8], the “Inhibitory effect on H1975 cell line” value is given as “significantly inhibitory effect”. The “Inhibitory effect on HER2” value on HER2 is recorded as “inhibitory effect”. Moreover, the “Inhibitory effect on HER4” value at HER4 is reported as “inhibitory effect”.

The values are drawn from patent US10633364B2, “Crystals of quinazoline derivative and preparation method therefor” (Xuanzhu Pharma Co., Ltd., priority 2015, dated 2020).
